Experiment in all cases: NCI anticancer screen, dose series, 48 h
Experiment [1] deals with IGROV1 ovarian.
Experiment [2] deals with COLO 205 colon.
Experiment [3] relates to KM12 colon.
The subject of experiment [4] is SNB-75 CNS.
Experiment [5] deals with SF-539 CNS.
In experiment [6] the test system is DU-145 prostate.
The subject of experiment [7] is U251 CNS.
The test system of experiment [8] is RPMI-8226 leukemia.
Experiment [9] has as its system UACC-257 melanoma.
The subject of experiment [10] is RXF 393 renal.

“And” between values parts separate entries of the source, which are not always exact repeats. Identical values can stand only once.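 Tested at 5 concentrations; 48 h exposure; 96-well plates; endpoints linearly interpolated, else capped at highest concentration. Abbreviation: GI50, concentration required for 50% inhibition of growth. TGI: total growth inhibition.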

`CCN(CC)CCCC(C)Nc1c2ccc(Cl)cc2nc2ccc(OC)cc12` (configuration not stated): the GI50 in experiment [1] was 3.21 µM; in experiment [3], 2.39 µM; in experiment [4] it was 2.35 µM; in [5] it was 1.86 µM; in experiment [6] it was 2.28 µM; in [7], 1.89 µM. The TGI is 13.2 µM and 5.49 µM in [1]; 3.11 µM and 7.34 µM in experiment [2]; 7.83 µM and 5.14 µM in experiment [3]; 6.66 µM and 3.05 µM in [4]; 3.39 µM and 3.3 µM in experiment [5]; 6.37 µM in experiment [6]. Further, the TGI was 4.1 µM and 3.39 µM in [7]; 5.74 µM and 5.11 µM in [8]; 3.43 µM and 3.38 µM in experiment [9]; 2.53 µM in experiment [10].

As for `COc1cc(Nc2nccc(Nc3ccc4c(C)[nH]nc4c3)n2)cc(OC)c1OC`, the GI50 in experiment [1] is 0.858 µM; in experiment [2], 2.02 µM; in experiment [3] it was 0.68 µM; in [4] it was 0.486 µM; in experiment [5], 1.72 µM; in experiment [6], 2.44 µM. Moreover, the GI50 in experiment [7] was 3.92 µM; in experiment [8] it was 5.21 µM; in experiment [9] it was 1.22 µM; in experiment [10], 0.683 µM. The TGI in experiment [1] is 5.6 µM; in experiment [2] it was 5.65 µM; in experiment [3], 3.06 µM; in experiment [4], 3.22 µM; in [5] it was 6.11 µM; in experiment [6], 7.43 µM. The TGI stood at 17.8 µM in experiment [7], 13.2 µM in [8], 5.96 µM in [9] and 3.21 µM in [10].

As for `COC(=O)CCc1cc(OC)c2c(c1)C(C(=O)OC)C(c1ccc(OC)c(OC)c1)O2` (configuration not stated), the GI50 in experiment [1] was > 100 µM and 21.5 µM; in [2], > 100 µM and 21.6 µM; in experiment [3] it was > 100 µM and 19.6 µM; in experiment [5], > 100 µM and 11.1 µM; in [6], over 100 µM; in experiment [7] it was > 100 µM and 13.3 µM. The GI50 in experiment [8] is > 100 µM and 22.3 µM. Moreover, the TGI in experiment [1] was over 100 µM; in [2], over 100 µM; in experiment [3], over 100 µM; in [4] it was 50.6 µM; in experiment [5], > 100 µM and 47.3 µM; in experiment [6], over 100 µM. Moreover, the TGI in experiment [7], in experiment [8], in experiment [9] and in experiment [10] was over 100 µM throughout.

Turning to `O=c1c(Oc2ccc(F)cc2F)cc2cnc(NC3CCOCC3)nc2n1C1CCS(=O)(=O)CC1`, the GI50 in experiment [1], in [2], in experiment [3], in experiment [4], in experiment [5] and in [6] was over 25 µM throughout. The GI50 in experiment [7], in experiment [8], in experiment [9] and in [10] was over 25 µM each time. The TGI in experiment [1], in experiment [2], in experiment [3], in experiment [4], in experiment [5] and in [6] was over 25 µM throughout. Further, the TGI in experiment [7], in experiment [8], in [9] and in experiment [10] was over 25 µM in each case.

Turning to `COc1ccc(CN(C)c2ccc(CO)c(Cl)c2)cc1`, the GI50 is 0.405 µM in [1]; 3.55 µM in experiment [2]; 24.6 µM in experiment [3]; 23.5 µM in experiment [4]; 47.7 µM in experiment [5]; 34.2 µM in experiment [6]. For the same molecule, the GI50 is 4.05 µM in experiment [7], 9.71 µM in [8], 0.318 µM in experiment [9] and 10.9 µM in experiment [10]. The TGI in experiment [1] was 3.3 µM; in experiment [2], 17.5 µM; in experiment [3], over 92.8 µM; in [4], over 90.7 µM; in experiment [5], over 100 µM; in experiment [6], over 100 µM. The TGI in experiment [7] was over 87.3 µM; in experiment [8], over 65.4 µM; in [9] it was 1.22 µM; in [10], over 79.8 µM.

For the molecule `COc1ccc(/C=N\NC(=O)CN2CCN(c3cc4c(cc3F)c(=O)c(C(=O)N/N=C/c3ccc(OC)c(OC)c3)cn4C3CC3)CC2)cc1OC`, the GI50 was 3.1 µM in experiment [1]; 3.38 µM in experiment [2]; 3.42 µM in [3]; 1.56 µM in experiment [4]; 2.38 µM in experiment [5]; 3.54 µM in experiment [6]. The GI50 is 2.29 µM in experiment [7], 2.77 µM in [8], 3.38 µM in experiment [9] and 3.79 µM in [10]. Besides, the TGI in experiment [1] came to 17.1 µM; in experiment [2], 14.8 µM; in experiment [3] it was 10.7 µM; in experiment [4], 3.49 µM; in experiment [5] it was 6.46 µM; in experiment [6], 12 µM. Further, the TGI came out at 6.29 µM in experiment [7], 8.82 µM in [8], 37.6 µM in experiment [9] and 15.2 µM in experiment [10].

With `O=c1ccn(C2OC(CO)C(O)C2F)c(=O)[nH]1` (configuration not stated), the GI50 in experiment [1], in experiment [2], in experiment [3], in experiment [5], in experiment [6] and in experiment [7] was over 1000 µM throughout. Moreover, the GI50 in experiment [8], in experiment [9] and in experiment [10] was over 1000 µM throughout. In addition, the TGI in experiment [1] is over 1000 µM; in experiment [2], over 1000 µM; in [3], over 1000 µM; in experiment [4], over 100 µM; in experiment [5], over 1000 µM; in experiment [6], over 1000 µM. Moreover, the TGI in experiment [7], in [8], in experiment [9] and in experiment [10] was over 1000 µM each time.
